{
  "source": "patent US20130005588A1",
  "about": "“METHOD FOR DETERMINING SUBSTANCE NON-TOXICITY” (priority 2010, published 2013)",
  "key": {"[1]": {"tested_on": "rat 3-D primary aggregating brain cell cultures", "assay": "Gene expression (mRNA of nestin, NF-200, S100β, MBP) by quantitative real-time PCR in aggregating brain cell cultures exposed to potential DNT chemicals", "type": "cell-based", "protocol": "(§1) Generally one batch of Rat primary aggregating brain cell cultures aggregates were prepared every month. […] The endpoints applied to study processes of neurodevelopment include quantitative real-time PCR, Western blot analysis and mass spectrometry based metabolomics.\nAggregate cultures were maintained for 35 days in vitro (DIV). Samples were taken at DIV 1, 7, 14, 21, 28, 35 and mRNA was isolated, purified and quantified by RT-PCR.\nThe expression of the following genes was quantified; nestin expressed in neural precurser cells, neurofilament-200 (NF-200) expressed in neurons, S100β expressed in astrocytes and myelin basic protein (MBP) expressed in oligodendrocytes.\nAggregating brain cell cultures were exposed to potential DNT chemicals during both early (day in vitro 7-14) and late developmental stages (day in vitro […]). Chemicals were dissolved in water or DMSO depending on their chemical properties. Control cells received the vehicle without the DNT chemical."}, "[2]": {"tested_on": "primary rat aggregating brain cell cultures", "type": "cell-based", "protocol": "as §1\nCellular extracts (control and treated cultures) were prepared as described. The samples were used to establish an LC-MS method for the analysis of metabolites. […] Significant pertubations in metabolite levels were determined by principal component analysis and metabolites were identified by a Metlin metabolite database search using their retention time and accurate mass. Examples of metabolites that were perturbed by lead chloride and TCE treatment in the neuronal cell model and could be linked to biological pathways are provided in Table 3."}, "[3]": {"conditions": "astrocytic marker, exposure DIV 7-14 or 7-21, real-time PCR"}, "[4]": {"conditions": "nestin, NF-200, S100β, MBP, exposure DIV 7-14 or 7-21"}, "[5]": {"conditions": "neural precursor marker, exposure DIV 7-14 or 7-21, real-time PCR"}, "[6]": {"conditions": "neuronal marker, exposure DIV 7-14 or 7-21, real-time PCR"}, "[7]": {"conditions": "oligodendrocyte marker, exposure DIV 7-14 or 7-21, real-time PCR"}},
  "note": "Like-named read-outs stand apart in the source and are kept apart here. Residues, ends and D or L forms follow the SMILES beside them.",
  "data": [
    {"compound": "COC(=O)[C@H](Cc1ccccc1)NC(=O)[C@@H](N)CC(=O)O", "note": "[Aspartame] (HELM PEPTIDE1{D.F.[CO[*:1]]}$$$$V2.0)", "values": [
      {"measurement": "The lowest concentration inducing changes in mRNA levels of S100β", "setting": "[1]; [3]", "result": "—^1"},
      {"measurement": "significant effects on quantified gene expression levels (one or several cell type related genes)", "setting": "[1]; [4]", "result": "did not induce any significant effects"},
      {"measurement": "The lowest concentration inducing changes in mRNA levels of nestin", "setting": "[1]; [5]", "result": "—^1"},
      {"measurement": "The lowest concentration inducing changes in mRNA levels of NF-200", "setting": "[1]; [6]", "result": "—^1"},
      {"measurement": "The lowest concentration inducing changes in mRNA levels of MBP", "setting": "[1]; [7]", "result": "—^1"}
    ]},
    {"compound": "CC(C)(c1ccc(O)cc1)c1ccc(O)cc1", "note": "[Bisphenol A]", "values": [
      {"measurement": "The lowest concentration inducing changes in mRNA levels of S100β", "setting": "[1]; [3]", "result": "—^1"},
      {"measurement": "significant effects on quantified gene expression levels (one or several cell type related genes)", "setting": "[1]; [4]", "result": "significantly affected"},
      {"measurement": "The lowest concentration inducing changes in mRNA levels of nestin", "setting": "[1]; [5]", "result": "—^1"},
      {"measurement": "The lowest concentration inducing changes in mRNA levels of NF-200", "setting": "[1]; [6]", "result": 100, "unit": "µM"},
      {"measurement": "The lowest concentration inducing changes in mRNA levels of MBP", "setting": "[1]; [7]", "result": "—^1"}
    ]},
    {"compound": "[Cl][Cd][Cl]", "note": "[Cadmium Chloride]", "values": [
      {"measurement": "The lowest concentration inducing changes in mRNA levels of S100β", "setting": "[1]; [3]", "result": 1, "unit": "µM"},
      {"measurement": "significant effects on quantified gene expression levels (one or several cell type related genes)", "setting": "[1]; [4]", "result": "significantly affected"},
      {"measurement": "The lowest concentration inducing changes in mRNA levels of nestin", "setting": "[1]; [5]", "result": 1, "unit": "µM"},
      {"measurement": "The lowest concentration inducing changes in mRNA levels of NF-200", "setting": "[1]; [6]", "result": 1, "unit": "µM"},
      {"measurement": "The lowest concentration inducing changes in mRNA levels of MBP", "setting": "[1]; [7]", "result": 10, "unit": "µM"}
    ]},
    {"compound": "CNC(=O)Oc1cccc2ccccc12", "note": "[Carbaryl]", "values": [
      {"measurement": "The lowest concentration inducing changes in mRNA levels of S100β", "setting": "[1]; [3]", "result": "—^1"},
      {"measurement": "The lowest concentration inducing changes in mRNA levels of nestin", "setting": "[1]; [5]", "result": 0.1, "unit": "µM"},
      {"measurement": "The lowest concentration inducing changes in mRNA levels of NF-200", "setting": "[1]; [6]", "result": 0.1, "unit": "µM"},
      {"measurement": "The lowest concentration inducing changes in mRNA levels of MBP", "setting": "[1]; [7]", "result": 0.1, "unit": "µM"}
    ]},
    {"compound": "CCOP(=S)(OCC)Oc1nc(Cl)c(Cl)cc1Cl", "note": "[Chlorpyrifos]", "values": [
      {"measurement": "The lowest concentration inducing changes in mRNA levels of S100β", "setting": "[1]; [3]", "result": 10, "unit": "µM"},
      {"measurement": "significant effects on quantified gene expression levels (one or several cell type related genes)", "setting": "[1]; [4]", "result": "significantly affected"},
      {"measurement": "The lowest concentration inducing changes in mRNA levels of nestin", "setting": "[1]; [5]", "result": 0.1, "unit": "µM"},
      {"measurement": "The lowest concentration inducing changes in mRNA levels of NF-200", "setting": "[1]; [6]", "result": 0.1, "unit": "µM"},
      {"measurement": "The lowest concentration inducing changes in mRNA levels of MBP", "setting": "[1]; [7]", "result": 1, "unit": "µM"}
    ]},
    {"compound": "Nc1nnc(-c2cccc(Cl)c2Cl)c(N)n1", "note": "[Lamotrigine]", "values": [
      {"measurement": "significant effects on quantified gene expression levels (one or several cell type related genes)", "setting": "[1]", "result": "did not induce any significant effects"},
      {"measurement": "The lowest concentration inducing changes in mRNA levels of NF-200", "setting": "[1]; rat", "result": "—^1"},
      {"measurement": "The lowest concentration inducing changes in mRNA levels of S100β", "setting": "[1]; rat", "result": "—^1"},
      {"measurement": "The lowest concentration inducing changes in mRNA levels of nestin", "setting": "[1]; rat", "result": "—^1"}
    ]},
    {"compound": "[Cl][Pb][Cl]", "note": "[Lead Chloride]", "values": [
      {"measurement": "The lowest concentration inducing changes in mRNA levels of S100β", "setting": "[1]; [3]", "result": 10, "unit": "µM"},
      {"measurement": "significant effects on quantified gene expression levels (one or several cell type related genes)", "setting": "[1]; [4]", "result": "significantly affected"},
      {"measurement": "The lowest concentration inducing changes in mRNA levels of nestin", "setting": "[1]; [5]", "result": 10, "unit": "µM"},
      {"measurement": "The lowest concentration inducing changes in mRNA levels of NF-200", "setting": "[1]; [6]", "result": 0.1, "unit": "µM"},
      {"measurement": "The lowest concentration inducing changes in mRNA levels of MBP", "setting": "[1]; [7]", "result": 0.1, "unit": "µM"},
      {"measurement": "alteration of metabolites in the aggregate samples", "setting": "[2]; LC-MS, intra-cellular extracts, treatment 7 to 21 DIV, principal component analysis", "result": "altered hundreds of metabolites"}
    ]},
    {"compound": "Cl[C@H]1[C@H](Cl)[C@@H](Cl)[C@@H](Cl)[C@H](Cl)[C@H]1Cl", "note": "[Lindane]", "values": [
      {"measurement": "The lowest concentration inducing changes in mRNA levels of S100β", "setting": "[1]; [3]", "result": "—^1"},
      {"measurement": "significant effects on quantified gene expression levels (one or several cell type related genes)", "setting": "[1]; [4]", "result": "significantly affected"},
      {"measurement": "The lowest concentration inducing changes in mRNA levels of nestin", "setting": "[1]; [5]", "result": 0.1, "unit": "µM"},
      {"measurement": "The lowest concentration inducing changes in mRNA levels of NF-200", "setting": "[1]; [6]", "result": 0.1, "unit": "µM"},
      {"measurement": "The lowest concentration inducing changes in mRNA levels of MBP", "setting": "[1]; [7]", "result": 1, "unit": "µM"}
    ]},
    {"compound": "S=C([S-])NCCNC(=S)[S-].[Mn+2]", "note": "[Maneb]", "values": [
      {"measurement": "The lowest concentration inducing changes in mRNA levels of S100β", "setting": "[1]; [3]", "result": "—^1"},
      {"measurement": "The lowest concentration inducing changes in mRNA levels of S100β", "setting": "[1]; astrocytic marker, exposure DIV 7-14 or 7-21, real-time PCR, listed as maneb", "result": "no observed effects"},
      {"measurement": "significant effects on quantified gene expression levels (one or several cell type related genes)", "setting": "[1]; [4]", "result": "significantly affected"},
      {"measurement": "The lowest concentration inducing changes in mRNA levels of nestin", "setting": "[1]; [5]", "result": 1, "unit": "µM"},
      {"measurement": "The lowest concentration inducing changes in mRNA levels of NF-200", "setting": "[1]; [6]", "result": 0.1, "unit": "µM"},
      {"measurement": "The lowest concentration inducing changes in mRNA levels of MBP", "setting": "[1]; [7]", "result": 0.1, "unit": "µM"}
    ]},
    {"compound": "ClC=C(Cl)Cl", "note": "[Trichloroethylene]", "values": [
      {"measurement": "significant effects on quantified gene expression levels (one or several cell type related genes)", "setting": "[1]", "result": "significantly affected"},
      {"measurement": "The lowest concentration inducing changes in mRNA levels of NF-200", "setting": "[1]; rat", "result": 0.1, "unit": "µM"},
      {"measurement": "The lowest concentration inducing changes in mRNA levels of S100β", "setting": "[1]; rat", "result": "—^1"},
      {"measurement": "The lowest concentration inducing changes in mRNA levels of nestin", "setting": "[1]; rat", "result": 50, "unit": "µM"},
      {"measurement": "alteration of metabolites in the aggregate samples", "setting": "[2]", "result": "altered hundreds of metabolites"}
    ]},
    {"compound": "CCCC(CCC)C(=O)O", "note": "[Valproic acid]", "values": [
      {"measurement": "significant effects on quantified gene expression levels (one or several cell type related genes)", "setting": "[1]", "result": "significantly affected"},
      {"measurement": "The lowest concentration inducing changes in mRNA levels of MBP", "setting": "[1]; rat", "result": 100, "unit": "µM"},
      {"measurement": "The lowest concentration inducing changes in mRNA levels of NF-200", "setting": "[1]; rat", "result": "—^1"},
      {"measurement": "The lowest concentration inducing changes in mRNA levels of S100β", "setting": "[1]; rat", "result": 500, "unit": "µM"},
      {"measurement": "The lowest concentration inducing changes in mRNA levels of nestin", "setting": "[1]; rat", "result": "—^1"}
    ]}
  ]
}
